According to patent US20260265256A1 (IMPACT THERAPEUTICS (SHANGHAI), INC., priority 2023, published 2026):

Assays:
[1] = target: recombinant poly(ADP-ribose) polymerase 2 (PARP2) (Homo sapiens, UniProt Q9UGN5); assay: PARP2 chemiluminescent assay; format: biochemical; details: PARP2 enzyme activity, chemiluminescence, 40 ng enzyme/well
Description: The solution of recombinant poly(ADP-ribose) polymerase 1 and 2 (PARP1 and PARP2) (40 ng enzyme/well) and the compounds to be tested were mixed, respectively. The solutions were added to a 96-well plate coated with histone mixture, incubated at room temperature for 1 h, then 50 μL 0.3 ng/mL Streptavidin-HRP was added to each well. The plates were incubated for 30 minutes at room temperature. Finally, the plates were treated with streptavidin-HRP followed by addition of the ELISA ECL substrate to produce chemiluminescence that can be measured using a chemiluminescence reader. Inhibition of the tested compound to PARP1/2 enzyme activity was calculated according to the following formula. [formula] IC50 value is obtained by fitting the s-shaped dose response curve equation by using XL Fit software.

MDA-MB-436 cells = assay: Growth inhibition assay against BRCA mutant human breast cancer MDA-MB-436 cell line (CCK-8, 7 days); format: cell-based; details: 168 h, MDA-MB-436, 7 days, read-out: IC50 (nM), proliferation of human breast cancer cells MDA-MB-436
Description: The cells were cultured in complete medium (DMEM medium+10% FBS+Insulin+glutathione). When the confluence reached about 80%, cells were digested and gently dispensed from the bottom of the dish with a 1 mL pipette. Cell suspension was collected and centrifuged at 500 rpm for 3 min. The supernatant was discarded, and the cell pellet were re-suspended in complete medium. The cells were seeded into a culture dish at an appropriate proportion, and then cultured in a 5% CO2 incubator at 37° C. The assay was carried out when the cells were in optimum condition and the confluence was reached 80%. Cells in the logarithmic growth phase were taken to centrifugate, and the culture supernatant was removed. The cells were resuspended in refresh complete medium and counted. The resuspended cells were seeded at 3000/well in a 96-well plate and incubated at 37° C., 5% CO2 incubator overnight. […] The solution was mixed by oscillation. 0.10% DMSO was used as the control.
The next day, the 96-well plate inoculated with cells was taken out from the incubator, and the culture supernatant was removed. Then fresh medium of 195 uL/well and 5 μL/well of 40× test compound solution as mentioned above were added into the 96 well plate, respectively. Finally, the plate was incubated for 7 days in a 37° C. 5% CO2 incubator. The medium containing compound was changed on the fourth day. After 7 days, 20 μL of CCK-8 was added to each well and shaken gently, then was cultured for 4 hours. The plate was shaken for 5 min after incubation, the absorbance values of 450 nm or 650 nm wavelengths were recorded respectively (OD=absorbance value of 450 nm−absorbance value of 650 nm) by using the multifunction readout instrument.
Data were analyzed by software GraphPad Prism 6.0. The inhibitory activity of compounds on cell proliferation was plotted using cell survival rate against the compound concentration as coordinates. Cell survival rate %=(ODcompound−ODbackground)/(ODDMSO−ODbackground)×100.
Table 2 summarizes the inhibitory effect data (IC50) of the compounds on the proliferation of human breast cancer cells MDA-MB-436.

PDE3A = target: T1, PDE3A (Homo sapiens, UniProt Q14432); assay: PDE3A fluorescence polarization (FP) assay; format: biochemical; details: 2 nM PDE3A, 0.2 μM FAM-cAMP, read-out: IC50 (μM), PDE3A enzyme activity
T1 construct: purchased Sino Biological 11908-H20B1
Description: A PDE3A fluorescence polarization (FP) assay in a multi-step format was performed using black, round bottom 384-well plates (Corning, 4514). The testing compounds were serially diluted from stock solutions to 11 concentrations with a 3-fold dilution factor using DMSO. Fifty nL of compound dilutions was mixed with 5 μL of reaction buffer (10 mM Tris-HCl, pH 7.2, 10 mM MgCl2, 0.05% NaN3, 0.1% phosphate-free BSA) containing 0.2 μM FAM-cAMP (BPS, 60200) and 2 nM PDE3A (Sino Biological, 11908-H20B1) enzyme, and incubated for 60 min at 25° C. Afterwards, 15 μL binding agent mixture (Molecular Devices, R8124) was added to each well and the plate was incubated for 60 min at 25° C. The plate was loaded to a BMG PHERAstar FSX to read Fluorescence Polarization (FP) values at a setting of: Ex: 485 nm and Em: 520 nm. Emission light intensity with polarizers parallel (Em|) and emission light intensity with polarizers perpendicular (Em⊥) were recorded. The Polarization (mP) values were calculated using the following formula: mP=(SignalEm|−SignalEm⊥)/(SignalEm|+SignalEm⊥).
Data analysis: • 1) The inhibition % of a compound dose is calculated as:
[formula] • wherein mPMin and mPMax refer to the polarization readings in the condition of substrate only and substrate+enzyme, respectively. • 2) The IC50 values were calculated from non-linear curve fitting using following regression equation using a commercial curve fitting software GraphPad Prism 9.2.0.
wherein X refers to Log of compound concentration and Y refers to % Inhibition.
Table 3 summarize the inhibitory effects of compounds on PDE3A enzyme activity (IC50).

Chain of recombinant poly(ADP-ribose) polymerase 2 (PARP2) (Q9UGN5 whole entry): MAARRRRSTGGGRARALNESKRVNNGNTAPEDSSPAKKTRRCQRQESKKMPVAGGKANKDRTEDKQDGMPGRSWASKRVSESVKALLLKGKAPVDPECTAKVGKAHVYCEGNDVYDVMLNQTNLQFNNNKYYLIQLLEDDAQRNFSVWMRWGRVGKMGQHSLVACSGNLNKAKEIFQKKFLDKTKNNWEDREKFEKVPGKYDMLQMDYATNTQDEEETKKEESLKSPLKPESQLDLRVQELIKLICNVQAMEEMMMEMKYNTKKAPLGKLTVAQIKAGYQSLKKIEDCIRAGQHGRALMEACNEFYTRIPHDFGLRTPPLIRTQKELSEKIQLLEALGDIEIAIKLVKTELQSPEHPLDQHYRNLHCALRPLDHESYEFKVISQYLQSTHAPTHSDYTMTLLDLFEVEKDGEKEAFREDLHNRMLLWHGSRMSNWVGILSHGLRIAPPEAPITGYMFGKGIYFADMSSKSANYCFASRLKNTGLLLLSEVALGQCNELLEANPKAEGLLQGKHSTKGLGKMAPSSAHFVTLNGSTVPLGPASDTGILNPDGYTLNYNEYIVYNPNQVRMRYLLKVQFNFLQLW
T1 sequence (Q14432 669-1141 limits assumed): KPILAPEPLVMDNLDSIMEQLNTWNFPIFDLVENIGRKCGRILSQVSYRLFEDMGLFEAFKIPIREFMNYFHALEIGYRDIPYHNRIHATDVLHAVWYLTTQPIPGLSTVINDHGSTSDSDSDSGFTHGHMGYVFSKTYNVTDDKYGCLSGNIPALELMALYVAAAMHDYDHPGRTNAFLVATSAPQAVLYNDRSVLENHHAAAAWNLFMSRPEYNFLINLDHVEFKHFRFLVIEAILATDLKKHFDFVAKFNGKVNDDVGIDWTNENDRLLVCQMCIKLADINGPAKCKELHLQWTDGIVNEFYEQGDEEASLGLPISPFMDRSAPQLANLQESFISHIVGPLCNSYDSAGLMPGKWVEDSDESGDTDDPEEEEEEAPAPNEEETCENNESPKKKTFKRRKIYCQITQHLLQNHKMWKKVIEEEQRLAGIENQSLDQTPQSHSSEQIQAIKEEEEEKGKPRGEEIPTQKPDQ

Structure (SMILES)	IC50 [1]	IC50 (MDA-MB-436 cells)	IC50 (PDE3A)
CNC(=O)c1ccc(-n2cc3c(c2)CN(Cc2ccc4c([nH]c(=O)c5c(F)cnn54)c2F)C3)cn1 [Example 48, 5-(5-((3,6-difluoro-4-oxo-4,5-dihydropyrazolo[1,5-a]quinoxalin-7-yl)methyl)-5,6-dihydropyrrolo[3,4-c]pyrrol-2(4H)-yl)-N-methylpicolinamide]	48 nM	0.38 nM	> 30 µM
CNC(=O)c1ccc(-n2cc3c(n2)CN(Cc2ccc4c([nH]c(=O)c5c(F)cnn54)c2F)C3)c(Cl)n1 [Example 16, 5-(5-((3,6-difluoro-4-oxo-4,5-dihydropyrazolo[1,5-a]quinoxalin-7-yl)methyl)-5,6-dihydropyrrolo[3,4-c]pyrazol-2(4H)-yl)-6-chloro-N-methylpicolinamide]	1190 nM	5.65 nM	> 30 µM
CNC(=O)c1ccc(-c2nc3c(s2)CN(Cc2ccc4c([nH]c(=O)c5c(F)cnn54)c2F)C3)cn1 [Example 42, 5-(5-((3,6-difluoro-4-oxo-4,5-dihydropyrazolo[1,5-a]quinoxalin-7-yl)methyl)-5,6-dihydro-4H-pyrrolo[3,4-d]thiazol-2-yl)-N-methylpicolinamide]	118 nM	6.04 nM	> 30 µM
CNC(=O)c1ccc(-n2cc3c(n2)CN(Cc2ccc4c([nH]c(=O)c5occc54)c2F)C3)c(F)n1 [Example 54, 6-fluoro-5-(5-((6-fluoro-4-oxo-4,5-dihydrofuro[2,3-c]quinolin-7-yl)methyl)-5,6-dihydropyrrolo[3,4-c]pyrazol-2(4H)-yl)-N-methylpicolinamide]	255 nM	1.47 nM	> 30 µM
CNC(=O)c1ccc(-n2cc3c(n2)CN(Cc2ccc4c([nH]c(=O)c5c(F)cnn54)c2F)C3)c(F)n1 [Example 15, 5-(5-((3,6-difluoro-4-oxo-4,5-dihydropyrazolo[1,5-a]quinoxalin-7-yl)methyl)-5,6-dihydropyrrolo[3,4-c]pyrazol-2(4H)-yl)-6-fluoro-N-methylpicolinamide]	373 nM	1.36 nM	> 30 µM
CCNC(=O)c1ccc(-n2cc3c(n2)CN(Cc2ccc4c([nH]c(=O)c5cc(F)nn54)c2F)C3)c(F)n1 [Example 57, 5-(5-((2,6-difluoro-4-oxo-4,5-dihydropyrazolo[1,5-a]quinoxalin-7-yl)methyl)-5,6-dihydropyrrolo[3,4-c]pyrazol-2(4H)-yl)-N-ethyl-6-fluoropicolinamide]	> 10000 nM	1.56 nM	> 30 µM
CCNC(=O)c1ccc(-n2cc3c(n2)CN(Cc2ccc4c([nH]c(=O)c5c(C)cnn54)c2F)C3)cn1 [Example 6, 5-(5-((6-fluoro-3-methyl-4-oxo-4,5-dihydropyrazolo[1,5-a]quinoxalin-7-yl)methyl)-5,6-dihydropyrrolo[3,4-c]pyrazol-2(4H)-yl)-N-ethylpicolinamide]	> 10000 nM	2.07 nM	> 30 µM

Second part, the compound after the results:

IC50 [1]	IC50 (MDA-MB-436 cells)	IC50 (PDE3A)	Structure (SMILES)
> 1000 nM	> 100 nM	> 25 µM	CNC(=O)c1ccc(-n2ncc3c2CN(Cc2ccc4c([nH]c(=O)c5c(C)cnn54)c2F)C3)cn1 [Example 1-2, 5-(5-((6-fluoro-3-methyl-4-oxo-4,5-dihydropyrazolo[1,5-a]quinoxalin-7-yl)methyl)-5,6-dihydropyrrolo[3,4-c]pyrazol-1(4H)-yl)-N-methylpicolinamide]
> 10000 nM	1.51 nM	> 30 µM	CNC(=O)c1ccc(-n2cc3c(n2)CN(Cc2ccc4c([nH]c(=O)n5cc(C)nc45)c2F)C3)c(F)n1 [Example 51, 6-fluoro-5-(5-((7-fluoro-2-methyl-5-oxo-5,6-dihydroimidazo[1,2-c]quinazolin-8-yl)methyl)-5,6-dihydropyrrolo[3,4-c]pyrazol-2(4H)-yl)-N-methylpicolinamide]
> 10000 nM	1.57 nM	> 30 µM	CCNC(=O)c1ccc(-n2cc3c(n2)CN(Cc2ccc4c([nH]c(=O)c5c(F)cnn54)c2F)C3)c(F)n1 [Example 19, 5-(5-((3,6-difluoro-4-oxo-4,5-dihydropyrazolo[1,5-a]quinoxalin-7-yl)methyl)-5,6-dihydropyrrolo[3,4-c]pyrazol-2(4H)-yl)-N-ethyl-6-fluoropicolinamide]
> 10000 nM	1.57 nM	> 30 µM	CNC(=O)c1ccc(-n2cc3c(n2)CN(Cc2ccc4c([nH]c(=O)c5nn(C)cc54)c2F)C3)cn1 [Example 29, 5-(5-((6-fluoro-2-methyl-4-oxo-4,5-dihydro-2H-pyrazolo[3,4-c]quinolin-7-yl)methyl)-5,6-dihydropyrrolo[3,4-c]pyrazol-2(4H)-yl)-N-methylpicolinamide]
–	2.13 nM	> 30 µM	CNC(=O)c1ccc(-n2cc3c(n2)CN(Cc2ccc4c([nH]c(=O)c5c(C)cnn54)c2F)C3)cn1 [Example 1-1, 5-(5-((6-fluoro-3-methyl-4-oxo-4,5-dihydropyrazolo[1,5-a]quinoxalin-7-yl)methyl)-5,6-dihydropyrrolo[3,4-c]pyrazol-2(4H)-yl)-N-methylpicolinamide]
119 nM	0.76 nM	29.4 µM	CNC(=O)c1ccc(-n2cc3c(n2)CN(Cc2ccc4c([nH]c(=O)c5occc54)c2F)C3)cn1 [Example 28, 5-(5-((6-fluoro-4-oxo-4,5-dihydrofuro[2,3-c]quinolin-7-yl)methyl)-5,6-dihydropyrrolo[3,4-c]pyrazol-2(4H)-yl)-N-methylpicolinamide]
403 nM	0.81 nM	> 30 µM	CCNC(=O)c1ccc(-n2cc3c(n2)CN(Cc2ccc4c([nH]c(=O)c5occc54)c2F)C3)c(F)n1 [Example 55, N-ethyl-6-fluoro-5-(5-((6-fluoro-4-oxo-4,5-dihydrofuro[2,3-c]quinolin-7-yl)methyl)-5,6-dihydropyrrolo[3,4-c]pyrazol-2(4H)-yl)picolinamide]
–	4.11 nM	> 30 µM	Cc1cnn2c1c(=O)[nH]c1c(F)c(CN3Cc4cn(-c5ccc(C(=O)NC6CC6)nc5)nc4C3)ccc12 [Example 8, 5-(5-((6-fluoro-3-methyl-4-oxo-4,5-dihydropyrazolo[1,5-a]quinoxalin-7-yl)methyl)-5,6-dihydropyrrolo[3,4-c]pyrazol-2(4H)-yl)-N-cyclopropylpicolinamide]
42 nM	0.99 nM	> 30 µM	CNC(=O)c1ccc(-n2cc3c(n2)CN(Cc2ccc4c([nH]c(=O)c5c(F)cnn54)c2F)C3)cn1 [Example 13, 5-(5-((3,6-difluoro-4-oxo-4,5-dihydropyrazolo[1,5-a]quinoxalin-7-yl)methyl)-5,6-dihydropyrrolo[3,4-c]pyrazol-2(4H)-yl)-N-methylpicolinamide]
